Experimental findings from ChEMBL document CHEMBL5291721, “A preclinical secondary pharmacology resource illuminates target-adverse drug reaction associations of marketed drugs” (Nat Commun, 2023) are described below.

Test [1] addresses T1, Prostaglandin G/H synthase 1 (Rattus norvegicus, UniProt Q63921).
T1 sequence (Q63921 whole entry): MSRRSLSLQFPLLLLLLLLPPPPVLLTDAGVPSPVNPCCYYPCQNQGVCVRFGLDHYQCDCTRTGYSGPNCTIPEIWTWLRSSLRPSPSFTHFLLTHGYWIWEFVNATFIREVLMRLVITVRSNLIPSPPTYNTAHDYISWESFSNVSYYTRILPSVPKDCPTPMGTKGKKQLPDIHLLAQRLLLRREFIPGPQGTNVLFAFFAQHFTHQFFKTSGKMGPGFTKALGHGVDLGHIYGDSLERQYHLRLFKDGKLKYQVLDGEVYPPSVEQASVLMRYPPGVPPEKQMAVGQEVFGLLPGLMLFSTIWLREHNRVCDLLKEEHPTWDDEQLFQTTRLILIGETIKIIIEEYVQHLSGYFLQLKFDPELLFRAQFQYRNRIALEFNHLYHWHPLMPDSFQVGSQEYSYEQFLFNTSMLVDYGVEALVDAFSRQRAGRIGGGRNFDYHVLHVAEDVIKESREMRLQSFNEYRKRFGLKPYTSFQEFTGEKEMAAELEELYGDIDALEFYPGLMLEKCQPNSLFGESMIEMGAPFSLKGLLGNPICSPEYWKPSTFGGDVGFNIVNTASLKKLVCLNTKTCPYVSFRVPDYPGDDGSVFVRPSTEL
It counts as functional.

A further test has as its target T2, Adenosine receptor A3 (Homo sapiens, UniProt P0DMS8).
T2 sequence (P0DMS8 whole entry): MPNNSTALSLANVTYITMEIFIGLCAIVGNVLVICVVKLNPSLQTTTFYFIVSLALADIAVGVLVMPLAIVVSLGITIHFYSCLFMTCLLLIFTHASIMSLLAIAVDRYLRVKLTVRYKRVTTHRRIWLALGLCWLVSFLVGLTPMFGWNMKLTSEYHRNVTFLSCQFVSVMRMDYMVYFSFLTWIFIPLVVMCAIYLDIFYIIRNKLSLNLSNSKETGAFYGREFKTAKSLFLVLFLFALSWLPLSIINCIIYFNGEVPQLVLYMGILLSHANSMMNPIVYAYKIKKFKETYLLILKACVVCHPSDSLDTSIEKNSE

Test [2] has as its target T3, Type-1 angiotensin II receptor (Homo sapiens, UniProt P30556).
T3 sequence (P30556 whole entry): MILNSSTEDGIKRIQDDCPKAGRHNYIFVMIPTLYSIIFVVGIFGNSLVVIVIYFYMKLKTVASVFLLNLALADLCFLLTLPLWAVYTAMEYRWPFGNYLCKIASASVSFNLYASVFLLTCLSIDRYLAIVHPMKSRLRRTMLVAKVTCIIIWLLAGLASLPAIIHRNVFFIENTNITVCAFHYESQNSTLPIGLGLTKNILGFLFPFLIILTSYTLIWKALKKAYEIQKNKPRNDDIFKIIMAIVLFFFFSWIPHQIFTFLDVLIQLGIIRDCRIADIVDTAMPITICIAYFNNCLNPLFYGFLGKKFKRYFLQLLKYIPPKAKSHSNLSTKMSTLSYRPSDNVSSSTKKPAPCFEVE

The target of test [3] is Voltage-dependent L-type calcium channel subunit alpha-1C (Rattus norvegicus, UniProt P22002). It counts as functional.
In test [4] the target is T4, Gastrin/cholecystokinin type B receptor (Homo sapiens, UniProt P32239).
T4 sequence (P32239 whole entry): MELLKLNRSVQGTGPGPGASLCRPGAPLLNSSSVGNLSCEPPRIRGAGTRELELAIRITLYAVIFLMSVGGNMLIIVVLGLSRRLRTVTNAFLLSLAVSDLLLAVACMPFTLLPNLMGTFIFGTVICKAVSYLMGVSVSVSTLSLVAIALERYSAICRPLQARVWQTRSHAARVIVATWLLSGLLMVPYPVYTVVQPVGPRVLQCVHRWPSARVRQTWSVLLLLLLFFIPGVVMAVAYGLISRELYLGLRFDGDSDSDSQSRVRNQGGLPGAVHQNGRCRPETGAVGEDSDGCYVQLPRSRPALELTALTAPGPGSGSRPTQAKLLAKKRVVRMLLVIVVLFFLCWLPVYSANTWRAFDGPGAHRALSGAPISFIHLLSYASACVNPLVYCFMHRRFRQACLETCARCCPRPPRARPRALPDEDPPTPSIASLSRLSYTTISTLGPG

The target in test [5] is T5, Progesterone receptor (Homo sapiens, UniProt P06401).
T5 sequence (P06401 whole entry): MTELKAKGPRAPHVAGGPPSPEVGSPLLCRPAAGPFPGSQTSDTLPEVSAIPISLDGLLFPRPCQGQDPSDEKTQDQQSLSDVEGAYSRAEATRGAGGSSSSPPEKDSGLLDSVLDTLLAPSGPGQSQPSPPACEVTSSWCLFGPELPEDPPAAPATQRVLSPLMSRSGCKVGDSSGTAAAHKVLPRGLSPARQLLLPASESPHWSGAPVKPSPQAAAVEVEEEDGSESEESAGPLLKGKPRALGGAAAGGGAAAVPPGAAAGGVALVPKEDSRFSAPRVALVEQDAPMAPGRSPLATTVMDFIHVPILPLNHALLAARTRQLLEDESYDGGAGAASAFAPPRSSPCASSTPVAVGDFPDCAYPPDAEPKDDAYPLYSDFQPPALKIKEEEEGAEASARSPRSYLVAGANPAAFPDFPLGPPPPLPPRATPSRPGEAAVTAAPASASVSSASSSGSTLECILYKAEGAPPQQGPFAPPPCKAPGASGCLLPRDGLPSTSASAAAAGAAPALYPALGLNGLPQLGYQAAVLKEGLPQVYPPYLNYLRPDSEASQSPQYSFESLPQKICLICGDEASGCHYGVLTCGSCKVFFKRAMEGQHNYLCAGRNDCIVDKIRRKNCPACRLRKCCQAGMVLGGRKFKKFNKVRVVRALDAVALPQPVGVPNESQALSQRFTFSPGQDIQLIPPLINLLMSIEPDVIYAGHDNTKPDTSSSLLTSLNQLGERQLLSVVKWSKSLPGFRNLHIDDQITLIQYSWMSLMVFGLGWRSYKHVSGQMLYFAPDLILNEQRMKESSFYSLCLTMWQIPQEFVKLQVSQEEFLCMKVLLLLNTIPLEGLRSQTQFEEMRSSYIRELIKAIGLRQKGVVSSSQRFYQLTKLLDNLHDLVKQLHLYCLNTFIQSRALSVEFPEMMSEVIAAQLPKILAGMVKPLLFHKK
It counts as functional.

Test [6] concerns the target T5, Progesterone receptor. It counts as functional. This is another data set of the same source.
Further: assay procedure not described here.

Voltage-dependent L-type calcium channel subunit alpha-1C, sequence (P22002 whole entry): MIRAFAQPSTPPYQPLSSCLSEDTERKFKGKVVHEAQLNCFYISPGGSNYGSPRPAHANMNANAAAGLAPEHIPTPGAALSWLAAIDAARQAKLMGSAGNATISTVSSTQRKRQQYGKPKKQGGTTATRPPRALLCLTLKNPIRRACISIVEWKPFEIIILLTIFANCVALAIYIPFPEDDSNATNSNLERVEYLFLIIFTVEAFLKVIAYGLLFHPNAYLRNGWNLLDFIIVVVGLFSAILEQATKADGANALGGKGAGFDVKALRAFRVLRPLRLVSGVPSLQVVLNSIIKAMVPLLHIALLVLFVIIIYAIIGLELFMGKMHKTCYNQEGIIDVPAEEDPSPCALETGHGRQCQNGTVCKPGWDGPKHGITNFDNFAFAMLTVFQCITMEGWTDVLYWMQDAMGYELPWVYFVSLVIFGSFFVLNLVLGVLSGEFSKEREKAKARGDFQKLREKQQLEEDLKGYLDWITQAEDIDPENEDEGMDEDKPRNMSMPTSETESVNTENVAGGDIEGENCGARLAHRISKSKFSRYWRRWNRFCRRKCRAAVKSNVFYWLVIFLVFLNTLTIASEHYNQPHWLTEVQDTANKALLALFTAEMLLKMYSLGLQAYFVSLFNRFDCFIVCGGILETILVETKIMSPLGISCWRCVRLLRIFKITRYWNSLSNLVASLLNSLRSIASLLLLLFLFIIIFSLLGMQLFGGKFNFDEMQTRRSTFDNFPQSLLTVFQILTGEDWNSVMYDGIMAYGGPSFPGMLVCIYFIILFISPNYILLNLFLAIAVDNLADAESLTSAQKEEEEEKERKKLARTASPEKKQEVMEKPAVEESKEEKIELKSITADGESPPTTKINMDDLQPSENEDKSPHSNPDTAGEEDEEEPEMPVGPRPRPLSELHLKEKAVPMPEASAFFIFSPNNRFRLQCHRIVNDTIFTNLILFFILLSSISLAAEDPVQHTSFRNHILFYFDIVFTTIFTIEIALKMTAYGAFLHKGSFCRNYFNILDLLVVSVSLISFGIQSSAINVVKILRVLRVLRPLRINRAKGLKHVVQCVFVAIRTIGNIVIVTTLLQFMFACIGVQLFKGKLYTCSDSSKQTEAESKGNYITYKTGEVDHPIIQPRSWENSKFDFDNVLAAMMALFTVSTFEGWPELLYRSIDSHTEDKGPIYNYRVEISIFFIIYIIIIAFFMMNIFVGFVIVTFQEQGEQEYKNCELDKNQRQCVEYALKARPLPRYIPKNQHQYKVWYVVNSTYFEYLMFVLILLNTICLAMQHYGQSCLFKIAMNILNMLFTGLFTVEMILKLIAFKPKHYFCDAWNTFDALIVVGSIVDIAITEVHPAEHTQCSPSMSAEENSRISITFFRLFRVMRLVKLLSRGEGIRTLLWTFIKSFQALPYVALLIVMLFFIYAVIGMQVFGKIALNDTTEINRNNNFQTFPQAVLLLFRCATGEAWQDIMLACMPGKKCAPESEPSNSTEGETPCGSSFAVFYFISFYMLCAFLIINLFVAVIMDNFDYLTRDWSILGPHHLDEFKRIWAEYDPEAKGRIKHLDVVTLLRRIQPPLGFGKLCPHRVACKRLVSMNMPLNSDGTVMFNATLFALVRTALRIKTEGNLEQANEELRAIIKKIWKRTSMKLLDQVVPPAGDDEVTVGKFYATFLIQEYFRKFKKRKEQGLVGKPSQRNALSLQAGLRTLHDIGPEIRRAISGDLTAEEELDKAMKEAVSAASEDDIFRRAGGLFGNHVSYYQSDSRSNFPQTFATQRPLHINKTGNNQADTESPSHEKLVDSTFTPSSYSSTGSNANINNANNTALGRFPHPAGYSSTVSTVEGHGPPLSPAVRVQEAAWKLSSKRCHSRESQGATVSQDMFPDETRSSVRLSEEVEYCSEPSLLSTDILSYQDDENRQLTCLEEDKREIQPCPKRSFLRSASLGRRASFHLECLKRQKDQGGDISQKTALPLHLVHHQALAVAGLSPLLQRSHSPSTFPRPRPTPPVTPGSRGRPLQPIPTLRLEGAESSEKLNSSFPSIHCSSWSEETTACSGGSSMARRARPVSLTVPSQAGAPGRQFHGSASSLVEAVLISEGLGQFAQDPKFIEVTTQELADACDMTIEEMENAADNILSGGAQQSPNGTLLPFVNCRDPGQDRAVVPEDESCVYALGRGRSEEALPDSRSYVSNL

With `CNS(=O)(=O)Cc1ccc2[nH]cc(CCN(C)C)c2c1`, the AC50 (commonly the concentration at which the activity in the assay is half-maximal) is greater than 30 µM in test [1]; greater than 30 µM at Adenosine receptor A3; greater than 30 µM in test [2]; greater than 10 µM in test [3]; greater than 30 µM in test [4].

Turning to `CC=CC(=O)N(CC)c1ccccc1C`, the AC50 (in test [1]; on Adenosine receptor A3; at Progesterone receptor [5]; in test [2]; in test [3]; on Progesterone receptor [6]) was greater than 10 µM throughout.

On to `NCC[C@H](O)C(=O)N[C@@H]1C[C@H](N)[C@@H](O[C@H]2O[C@H](CN)[C@@H](O)[C@H](O)[C@H]2O)[C@H](O)[C@H]1O[C@H]1O[C@H](CO)[C@@H](O)[C@H](N)[C@H]1O` [AMIKACIN], for which the AC50 (in test [1]; at Adenosine receptor A3; at Progesterone receptor [5]; in test [2]; in test [3]; at Progesterone receptor [6]) was greater than 10 µM throughout.

For `CCOC(=O)OC(C)OC1=C(C(=O)Nc2ccccn2)N(C)S(=O)(=O)c2ccccc21` (configuration not stated) [AMPIROXICAM], the AC50 (in test [1]; on Adenosine receptor A3; on Progesterone receptor [5]; in test [2]; in test [3]; at Progesterone receptor [6]) was greater than 30 µM throughout. Also, the AC50 in test [4] was greater than 30 µM.

With `COc1ccc2c3c1O[C@H]1[C@@H](O)C=C[C@H]4[C@@H](C2)N(C)CC[C@@]341` [CODEINE], the AC50 in test [1] was greater than 30 µM; on Adenosine receptor A3, greater than 30 µM; in test [2], greater than 30 µM; in test [3], greater than 10 µM; in test [4], greater than 30 µM.

With `C#C[C@]1(O)CC[C@H]2[C@@H]3CCC4=Cc5oncc5C[C@]4(C)[C@H]3CC[C@@]21C` [DANAZOL], the AC50 at Adenosine receptor A3 is greater than 30 µM; in test [2], greater than 10 µM; in test [3], greater than 10 µM; at Progesterone receptor [6], 0.019 µM.

`Cn1c(=O)c2c(ncn2CC2OCCO2)n(C)c1=O` [DOXOFYLLINE]: the AC50 (in test [1]; at Adenosine receptor A3; on Progesterone receptor [5]; in test [2]; in test [3]; on Progesterone receptor [6]) was greater than 30 µM in each case. Also, the AC50 in test [4] is greater than 30 µM.

As to `Cc1ccc(S(=O)(=O)NC(=O)NN2CC3CCCC3C2)cc1` (configuration not stated) [GLICLAZIDE], the concentration at half-maximal activity (AC50) (in test [1]; at Adenosine receptor A3; on Progesterone receptor [5]; in test [2]; in test [3]; on Progesterone receptor [6]) was greater than 10 µM throughout.

On to `CC(C)Cn1cnc2c(N)nc3ccccc3c21` [IMIQUIMOD], for which the AC50 is greater than 30 µM in test [1]; greater than 30 µM at Adenosine receptor A3; greater than 10 µM on Progesterone receptor [5]; greater than 10 µM in test [2]; greater than 10 µM in test [3]; greater than 10 µM at Progesterone receptor [6].

Take `Nc1nc(N)nc(-c2cc(Cl)ccc2Cl)n1` [IRSOGLADINE]: the AC50 (in test [1]; on Adenosine receptor A3; on Progesterone receptor [5]; in test [2]; at Progesterone receptor [6]; in test [4]) was greater than 30 µM in each case.

Take `CNC(C)CCC=C(C)C` (configuration not stated) [ISOMETHEPTENE]: the AC50 (in test [1]; at Adenosine receptor A3; on Progesterone receptor [5]; in test [2]; on Progesterone receptor [6]; in test [4]) was greater than 30 µM in each case.

As to `CC(C)(C)c1cc(C(C)(C)C)c(NC(=O)c2c[nH]c3ccccc3c2=O)cc1O` [IVACAFTOR], the AC50 was greater than 30 µM in test [1]; 2.3 µM at Adenosine receptor A3; 26.9 µM in test [2]; greater than 10 µM in test [3]; greater than 30 µM in test [4].

Consider `C[C@](N)(Cc1ccc(O)c(O)c1)C(=O)O` [METHYLDOPA], for which the AC50 in test [1] was greater than 30 µM; at Adenosine receptor A3 it was greater than 30 µM; at Progesterone receptor [5] it was greater than 30 µM; in test [2], greater than 10 µM; in test [3], greater than 10 µM; on Progesterone receptor [6], greater than 30 µM.

Regarding `O=C(NCCN1CCOCC1)c1ccc(Cl)cc1` [MOCLOBEMIDE], the AC50 (in test [1]; on Adenosine receptor A3; at Progesterone receptor [5]; in test [2]; in test [3]; on Progesterone receptor [6]) was greater than 10 µM each time.

`N#Cc1ccc([C@H]2CCc3cncn32)c(F)c1` [OSILODROSTAT]: the AC50 (on Adenosine receptor A3; in test [2]; in test [3]; in test [4]) was greater than 10 µM throughout.

On to `CCCN(CCC)C(=O)C(CCC(=O)O)NC(=O)c1ccccc1` (configuration not stated) [PROGLUMIDE], for which the AC50 is greater than 30 µM in test [1]; greater than 30 µM at Adenosine receptor A3; greater than 30 µM at Progesterone receptor [5]; greater than 30 µM in test [2]; greater than 10 µM in test [3]; greater than 30 µM at Progesterone receptor [6].

As for `C[C@]12CC[C@H]3[C@@H](CCC4=CC(=O)CC[C@@]43C)[C@@H]1CC[C@@H]2O` [TESTOSTERONE], the AC50 in test [1] is greater than 10 µM; at Adenosine receptor A3, greater than 10 µM; in test [2], greater than 10 µM; in test [3] it was greater than 10 µM; on Progesterone receptor [6], 0.092 µM.

With `CN1CCN(CC/C=C2/c3ccccc3Sc3ccc(S(=O)(=O)N(C)C)cc32)CC1` [THIOTHIXENE], the AC50 is greater than 30 µM in test [1]; greater than 30 µM at Adenosine receptor A3; greater than 30 µM in test [2]; greater than 10 µM in test [3]; greater than 30 µM in test [4].

For `CN1C(=O)OC(C)(C)C1=O` [TRIMETHADIONE], the AC50 (in test [1]; at Adenosine receptor A3; at Progesterone receptor [5]; in test [2]; in test [3]; at Progesterone receptor [6]) was greater than 10 µM each time.
